In one data set the test system is IL-17A and IL-17F. Kind of data set: Inhibition of IL-17 family members. Conditions: no test described.
In a further data set the test system is IL-6. The data set can be described thus: T1165 cell proliferation assay, IL-6. In kind it is cell-based. As for the experimental part:
CTLL2 cells are cultured in the presence of 5 u/ml and 10 u/ml of IL-2 (FIG. 10A) and 2.5 ng/ml and 5 ng/ml of IL-15 (FIG. 10B) in the presence of increasing concentration of BNZ132-PEG-130. T1165 cells are cultured with 0.1 ng/ml of IL-6 (FIG. 10C) and increasing concentration of BNZ132-PEG-130. […] BNZ132-1 was conjugated to BNZ130 via a PEG24 linker. The name of the bi-antagonist peptide is BNZ132-PEG-130. FIG. 10A and FIG. 10B show the results of BNZ132-PEG-130 in IL-2 (FIG. 10A) and IL-15 (FIG. 10B) CTLL2 proliferation assay. Cells were washed and incubated with IL-2 (5 and 10 units/ml), IL-15 (2.5 and 5 ng/ml) in the presence or absence of BNZ132-PEG-130 (0.1-10 μM). Cells were then pulsed with the WST-1 reagent to measure the proliferative response for the next 6 hr (OD450). […] Cells are washed and incubated with IL-6 (0.1 ng/ml) in the presence or absence of BNZ132-PEG-130 (0.1-10 μM) for 24 hours. Cells were then pulsed with WST-1 reagent for the following 6 hr to measure OD450. The BNZ130-1 polypeptide as presented in Table 2, above, is tested for its activity in inhibiting IL-6 activity. T1165 cells that are dependent on human or mouse IL-6 for their growth in vitro are selected. The cell line is cultured in the absence of IL-6, In the presence of IL-6, in the presence of BNZ130-1, and in the presence of IL-6 and BNZ130-1.

Another data set deals with γc-cytokines. The data set can be described thus: Target cytokine spectrum within the γc-family. Format: cell-based.

No end group written: not given here.

As for “BNZ17-1: inhibitory polypeptide SEQ ID NO: 144 of IL-17A and IL-17F target region fragments (Table 7) (YSRSTSPWRYHRDRDPNRYPSDLYHAKC)”, the “specific inhibition within the IL-17 family” value in the data set with IL-17A and IL-17F is “specifically inhibits IL-17A and IL-17F to the exclusion of the remaining family members”. In the case of LTHLIERSSRAVLQSLLRASRQ [BNZ130-1], in the data set with IL-6 (Example 11, T1165 cells dependent on IL-6), the “antagonistic activity on T1165 proliferation in the presence of IL-6” value was “dose-dependent antagonistic activity”. The “effect on T1165 cell survival” value in the data set on IL-6 (Example 11, with or without IL-6) is “does not affect T1165 survival”. Regarding “BNZ gamma: polypeptide SEQ ID NO: 130 (Table 6) of IL-15, IL-2 and IL-9 D-helix fragments; probably the same as BNZ132-1 (IKEFLQSFIHIVQSIINT)”, the γc-cytokines not inhibited entry in the data set with γc-cytokines (IL-4, IL-7 and IL-21) is listed as “does not exhibit inhibitory activity”. The γc-cytokines inhibited entry in the data set on γc-cytokines (summary statements, BNZ132-2 and -3 data not shown) is “inhibitory activity against all of IL-2, IL-15 and IL-9”.

Source of the values: US10854312B2, “Selective peptide antagonists” (BIONIZ, LLC, priority 2013, dated 2020).
